Series [1] concerns the target native nAChRs of rat forebrain (Rattus norvegicus, UniProt P09483+P12390). The class given is binding. Conditions: Table 1. The method, then: (§1) To determine selectivities of these compounds in binding assays among the three predominant nAChR subtypes, α3β4, α4β2 and α7, the ratios of Ki values (α3β4/α4β2 and α7/α4β2) were determined.
Briefly, cultured cells at >80% confluence were removed from their flasks (80 cm^2) with a disposable cell scraper and placed in 10 mL of 50 mM Tris.HCl buffer (pH 7.4, 4° C.). The cell suspension was centrifuged at 10,000×g for 5 min and the pellet was collected. The cell pellet was then homogenized in 10 mL buffer with a polytron homogenizer and centrifuged at 36,000 g for 10 min at 4° C. The membrane pellet was resuspended in fresh buffer, and aliquots of the membrane preparation were used for binding assays. […] Bound and free ligands were separated by vacuum filtration through Whatman GF/C filters treated with 0.5% polyethylenimine. The filter-retained radioactivity was measured by liquid scintillation counting. Specific binding was defined as the difference between total binding and nonspecific binding. Data from competition binding assays were analyzed using Prism 5 (GraphPad Software, San Diego, Calif.).
We measured the in vitro binding affinities of the ligands for defined receptor subtypes (α2β2, α2β4, α3β2, α3β4, α4β2, α4Γ4, α6β2, α6β4, and α7) expressed in stably transfected cell lines. […] Rat forebrain homogenates were included to allow comparison between the heterologous and native α4β2 and α7 nAChRs.

The next series concerns ferrets. Briefly: Emesis studies in ferrets. In kind it is in vivo, ferret (Mustela putorius furo). The method, then: Effects of (S)-15 in causing nausea and emesis were assessed in a ferret model. For comparison, varenicline was also tested. […] In general, all animals remained alert and active with periods of inactivity that mirrored their baseline behavior within the 1 hr observation period.
In one animal, this behavior was accompanied by oral stereotypy (licking), whereas in two animals it was interspersed by episodes of backward walking. On the average, these behaviors manifested around ˜2.20 min. […] Occasionally, when animals tried to ambulate they would immediately cease their movement after each attempt. This would, be followed by a momentary increase in breathing, giving the impression that the animal was in distress.
Studies were undertaken in male ferrets (Mustela putorius furo) weighing 0.9-1.5 kg (Marshall Farms, N.Y.). They were housed in controlled conditions of room temperature (22° C.) and light (12:12 h light-dark cycle) with free access to food and water. Prior to each experiment, food was withheld overnight, whereas water was provided ad libitum.
Emetic testing consisted of placing animals individually in a polycarbonate enclosure. Following a 30 min acclimation period, each animal randomly received a subcutaneus injection of varencline or compound (S)-15 (YL-1-127) in the subscapular region. A 60 min observation and video recording followed the drug administration. […] All drugs were dissolved in sterile saline.
Video analysis of the incidence of emesis, stereotypical behaviors (such as licking, mouth-clawing, backward walking, gagging, and burying of the head in cage) and GI side effects (diarrhea) was done off-line. Stereotypical behaviors are thought to be reflective of a subjective sensation of nausea. The emetic index of a drug was calculated as the percentage of animals displaying emesis (one or more times in 60 min) divided by the total number of animals tested. […]
The Nausea Index for the stereotypical behaviors was derived from the mean±SEM number of nausea behaviors observed among all animals in a given treatment group. Significance was determined at p<0.05.

The target of a further series is human α4β2 nAChRs (Homo sapiens (Human), UniProt P17787+P43681). Briefly: 86Rb+ efflux assay, agonist activity, α4β2. In kind it is cell-based. The method, then:
(§2) Their agonist activities were assessed by measuring stimulated ^86Rb^+ efflux from stably transfected cells, either expressing human α4β2 nAChRs or rat α3β4 receptors.
(§3) The cell lines expressing defined rat nAChR subtypes were established previously by stably transfecting HEK 293 cells with rat nAChR subunit genes. The cell line expressing human α4β2 nAChRs, YXα4β2H1, was established recently. These cell lines were maintained in minimum essential medium (MEM) supplemented with 10% fetal bovine serum, 100 units/mL penicillin G, […] and selective antibiotics at 37° C. with 5% CO2 in a humidified incubator. Fetal bovine serum was provided by Gemini Bio-Products (Woodland, Calif.). Tissue culture medium and antibiotics were obtained from Invitrogen Corporation (Carlsbad, Calif.), unless otherwise stated.
Functional properties of compounds at nAChRs expressed in the transfected cells were measured using ^86Rb^+ efflux assays as described previously. In brief, cells expressing human α4β2 or rat α3β4 nAChRs were plated into 24-well plates coated with poly-D-lysine. The plated cells were grown at 37° C. for 18 to 24 hour to reach 85-95% confluence. The cells were then incubated in growth medium (0.5 mL/well) containing ^86Rb^+ (2 μCi/mL) for 4 hour at 37° C. The loading mixture was then aspirated, and the cells were washed four times with 1 mL buffer (15 mM HEPES, 140 mM NaCl, 2 mM KCl, 1 mM MgSO4, 1.8 mM CaCl2, 11 mM Glucose, pH 7.4). One mL of buffer with or without compounds to be tested was then added to each well. After incubation for 2 min, the assay buffer was collected for measurements of ^86Rb^+ released from the cells. Cells were then lysed by adding 1 ml of 100 mM […] to each well, and the lysate was collected for determination of the amount of ^86Rb^+ that was in the cells at the end of the efflux assay. Radioactivity of assay samples and lysates was measured by liquid scintillation counting. Total loading (cpm) was calculated as the sum of the assay sample and the lysate of each well. The amount of ^86Rb^+ efflux was expressed as a percentage of ^86Rb^+ loaded. […] For obtaining EC50 and Emax values, stimulation curves were constructed in which 8 different concentrations of a ligand were included in the assay. […] EC50, Emax and IC50(10′) values were determined by nonlinear least-squares regression analyses (GraphPad, San Diego, Calif.).
The functional properties of the ligands were determined by ^86Rb^+ efflux assays in cells expressing α3β4 and α4β2 nAChR subtypes. The functional activity of each ligand was measured for its agonism, antagonism and desensitization ability. Agonist activity for each of the ligands was tested at eight different concentrations. […]

The target of the next series is rat α4β2 nAChR (Rattus norvegicus (Rat), UniProt P09483+P12390). In kind it is binding. Particulars: versus Sazetidine-A. The method, then: as §1, §3
Briefly, cultured cells at >80% confluence were removed from their flasks (80 cm^2) with a disposable cell scraper and placed in 10 mL of 50 mM Tris.HCl buffer (pH 7.4, 4° C.). […] The filter-retained radioactivity was measured by liquid scintillation counting. […] Data from competition binding assays were analyzed using Prism 5 (GraphPad Software, San Diego, Calif.).
We measured the in vitro binding affinities of the ligands for defined receptor subtypes (α2β2, α2β4, α3β2, α3β4, α4β2, α4Γ4, α6β2, α6β4, and α7) expressed in stably transfected cell lines. […]

The next series deals with rat α3β4 nAChRs (Rattus norvegicus (Rat), UniProt P04757+P12392). Briefly: 86Rb+ efflux assay, agonist activity, α3β4. The class given is cell-based. The method, then: as §2
The cell lines expressing defined rat nAChR subtypes were established previously by stably transfecting HEK 293 cells with rat nAChR subunit genes. The cell line expressing human α4β2 nAChRs, YXα4β2H1, was established recently. These cell lines were maintained in minimum essential medium (MEM) supplemented with 10% fetal bovine serum, 100 units/mL penicillin G, […] and selective antibiotics at 37° C. with 5% CO2 in a humidified incubator. Fetal bovine serum was provided by Gemini Bio-Products (Woodland, Calif.). […]
Functional properties of compounds at nAChRs expressed in the transfected cells were measured using ^86Rb^+ efflux assays as described previously. […] Radioactivity of assay samples and lysates was measured by liquid scintillation counting. Total loading (cpm) was calculated as the sum of the assay sample and the lysate of each well. The amount of ^86Rb^+ efflux was expressed as a percentage of ^86Rb^+ loaded. […] EC50, Emax and IC50(10′) values were determined by nonlinear least-squares regression analyses (GraphPad, San Diego, Calif.).
The functional properties of the ligands were determined by ^86Rb^+ efflux assays in cells expressing α3β4 and α4β2 nAChR subtypes. […]

In general, Ki refers to the equilibrium dissociation constant of an inhibitor or competing ligand from its target. A higher Ki goes with a looser hold on the target.

Where two headings read alike, the source gives them in different places.

For the compound `CCCCC#Cc1cnc(C)c(OC[C@H]2CCN2)c1` [(R)-15, (R)-3-(azetidin-2-ylmethoxy)-5-(hex-1-ynyl)-2-methylpyridine], in series [1], the Ki turned out to be 4300 nM. On the same count and under the same terms, in the case of `CCCCC#Cc1cnc(C)c(OC[C@H]2CCCN2)c1` [(R)-16, (R)-5-(hex-1-ynyl)-2-methyl-3-(pyrrolidin-2-ylmethoxy) pyridine] it was 110000 nM. `CCCCC#Cc1cnc(C)c(OC[C@@H]2CCN2)c1` [(S)-15, (S)-3-(azetidin-2-ylmethoxy)-5-(hex-1-ynyl)-2-methylpyridine] displayed a Ki in series [1] of 52 nM. For the same compound, in the series with ferrets (1-30 mg/kg s.c., 1 hr observation), the “emetic episodes or stereotypical behaviors indicative of nausea” value is “did not elicit any emetic episodes or stereotypical behaviors that are indicative of nausea”. `CCCCC#Cc1cnc(C)c(OC[C@@H]2CCCN2)c1` [(S)-16, (S)-5-(hex-1-ynyl)-2-methyl-3-(pyrrolidin-2-ylmethoxy)pyridine] returned a Ki in series [1] of 540 nM. Besides, the “agonist activity at α4β2 nAChRs” value at human α4β2 nAChRs (result in words) is “didn't show detectable agonist activity”. Take `Cc1ncc(C#CCCCCO)cc1OC[C@@H]1CCN1` [(S)-17, (S)-6-(5-(azetidin-2-ylmethoxy)-6-methylpyridin-3-yl)hex-5-yn-1-ol]: the affinity in series [1] corresponds to a Ki of 11 nM. Moreover, the “reduction in binding affinity for α4β2 nAChRs” value at rat α4β2 nAChR worked out at 70 fold. In turn, `Cc1ncc(C#CCCCCCl)cc1OC[C@@H]1CCN1` [(S)-21, (S)-3-(azetidin-2-ylmethoxy)-5-(6-chlorohex-1-ynyl)-2-methylpyridine] came in with a Ki in series [1] of 32 nM. Moreover, the “agonist activity at α4β2 nAChRs” value on human α4β2 nAChRs (result in words) was “didn't show detectable agonist activity”. For `Cc1ncc(C#CCCCCF)cc1OC[C@@H]1CCN1` [(S)-22, (S)-3-(azetidin-2-ylmethoxy)-5-(6-fluorohex-1-ynyl)-2-methylpyridine], the “agonist activity at α4β2 nAChRs” value at human α4β2 nAChRs (result in words) is given as “didn't show detectable agonist activity”. Compound `Cc1ncc(C#CC2CC2)cc1OC[C@@H]1CCN1` [(S)-27, (S)-3-(azetidin-2-ylmethoxy)-5-(cyclopropylethynyl)-2-methylpyridine] gave a Ki in series [1] of 31 nM. Regarding `CN1CCC[C@H]1c1cccnc1` [(−)-Nicotine, (−)-nicotine, reference compound], the “agonist activity at α3β4 nAChRs” value on rat α3β4 nAChRs is given as “full agonist activities”. Also, the “agonist activity at α4β2 nAChRs” value at human α4β2 nAChRs was “full agonist activities”. Regarding `OCCCCC#Cc1cncc(OC[C@@H]2CCN2)c1` [Sazetidine-A, reference compound], the Ki in series [1] worked out at 0.17 nM. Regarding `c1cnc2cc3c(cc2n1)[C@@H]1CNC[C@H]3C1` [Varenicline, varenicline], in series [1], the Ki stood at 1.1 nM. In the series on ferrets (0.5 mg/kg s.c.), the emetic episodes result is reported as “no emetic episodes were observed” and the “time at which nausea behaviors manifested, on the average” value is given as ~2.20 min.

The values are drawn from patent US9993465B2, “2,5-disubstituted-pyridyl nicotinic ligands, and methods of use thereof” (Georgetown University, priority 2011, dated 2018).
